Results on twelve compounds are retold here after US12428395B2, “Heterocyclic compounds as kinase inhibitor and uses thereof” (SPEROGENIX THERAPEUTICS LIMITED, priority 2019, dated 2025).

As a reminder, the inhibition is the percentage by which the read-out fell short of the control. The term pIC50 denotes the negative decadic logarithm of the IC50, by convention in mol/L.

pIC50: −log10 of the molar value.

This experiment deals with CHK-1 kinase (Homo sapiens (Human), UniProt O14757). The experiment can be described thus: CHK-1 Kinase Assay (Z-LYTE based TR-FRET). The class given is biochemical. Conditions: for inhibition at 0.1 µM: 0.1 μM compound, read-out: % Inhibition of CHK-1 enzyme activity @ 0.1 μM; for inhibition at 1 µM: 1 μM compound, read-out: % Inhibition of CHK-1 enzyme activity @ 1 μM; for inhibition at 5 µM: 5 μM compound, read-out: % Inhibition of CHK-1 enzyme activity @ 5 μM. The protocol:
IC50 values of compounds for inhibition of CHK-1 kinase or percent inhibition at defined concentrations were determined by Z-LYTE™ based TR-FRET assay. Kinase reactions were performed in a 10 μL volume in low-volume 384-well plates. The concentration of substrate (Ser Thr 19) was maintained at 2 μM in the assay, and the kinase reaction buffer consisted of 50 mM HEPES pH 7.5, 0.01% BRIJ-35, 10 mM MgCl2, 1 mM EGTA, 2 mM DTT. Serially diluted compounds (3-fold) in DMSO (0.5% in final reaction) were incubated with cocktail of CHK-1 kinase (5 ng/ml; Cat #P3040, ThermoFisher), substrate Ser Thr 19, (2 μM; Cat #PV4529, ThermoFisher), ATP (53 μM; Cat #PV3227, ThermoFisher) and buffer. Kinase reactions were allowed to proceed for 1 hour at room temperature after which 5 μL of a 1:256 dilution of Development Reagent A was added. The plate was allowed to incubate at room temperature for 60 minutes before being read on a BMG Pherastar plate reader using the Z-LYTE™ filter block for Z-LYTE™ TR-FRET. The resulting TR-FRET emission ratio was used to calculate percent inhibition by normalizing with the control using the following formula: — [% Inhibition=1−{(% Phosphorylationsample/% Phosphorylationcontrol (0% Inhibition)}·100] For calculation of IC50, the percent inhibition obtained was plotted against the concentration of inhibitor, and the data was fit to a sigmoidal dose-response curve with a variable slope. The IC50 was calculated from the curve.

Chain of CHK-1 kinase (O14757 whole entry): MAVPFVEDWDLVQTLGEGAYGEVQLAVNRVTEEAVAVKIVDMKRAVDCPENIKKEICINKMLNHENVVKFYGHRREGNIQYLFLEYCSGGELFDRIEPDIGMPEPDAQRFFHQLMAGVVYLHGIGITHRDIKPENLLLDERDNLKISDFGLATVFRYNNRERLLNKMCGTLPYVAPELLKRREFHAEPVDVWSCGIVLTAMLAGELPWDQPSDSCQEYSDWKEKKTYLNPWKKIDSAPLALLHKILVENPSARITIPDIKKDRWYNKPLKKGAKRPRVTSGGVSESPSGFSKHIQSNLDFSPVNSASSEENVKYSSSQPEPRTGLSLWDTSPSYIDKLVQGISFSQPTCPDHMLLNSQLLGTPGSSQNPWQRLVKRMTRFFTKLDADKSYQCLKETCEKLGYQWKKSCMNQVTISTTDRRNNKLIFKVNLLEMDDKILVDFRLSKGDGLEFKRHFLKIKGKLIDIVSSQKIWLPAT

For the compound `N#Cc1cnc(Nc2cc(NCC3CCNCC3)c(-c3ccc(F)cc3)nn2)cn1` [1.21, 5-(6-(4-fluorophenyl)-5-(piperidin-4-ylmethylamino)pyridazin-3-ylamino)pyrazine-2-carbonitrile], the inhibition at 0.1 µM is 3%, the inhibition at 1 µM is 5% and the inhibition at 5 µM amounted to 33%.

In the case of `CN1CCC(CNc2cnnc(Nc3cnc(C#N)cn3)c2)CC1` [1.10, 5-(5-((1-methylpiperidin-4-yl)methylamino)pyridazin-3-ylamino)pyrazine-2-carbonitrile], the inhibition at 0.1 µM was 8%, the inhibition at 1 µM worked out at 3% and the inhibition at 5 µM stood at 15%.

With `N#Cc1cnc(Nc2cc(NCC3CNCCO3)c(C3CC3)nn2)cn1` (centres unmarked) [1.17, 5-(6-cyclopropyl-5-(morpholin-2-ylmethylamino)pyridazin-3-ylamino)pyrazine-2-carbonitrile], the inhibition at 0.1 µM was determined as 3%, the inhibition at 1 µM stood at 12% and the inhibition at 5 µM is 41%.

Consider `N#Cc1cnc(Nc2cc(NCC3CCNCC3)c(-c3ccc(CO)cc3)nn2)cn1` [1.27, 5-(6-(4-(hydroxymethyl)phenyl)-5-(piperidin-4-ylmethylamino)pyridazin-3-ylamino)pyrazine-2-carbonitrile], for which the inhibition at 0.1 µM came to 0%, the inhibition at 1 µM stood at 8% and the inhibition at 5 µM worked out at 34%.

`COc1cccc(-c2nnc(Nc3cnc(C#N)cn3)cc2NCC2CCNCC2)c1` [1.26, 5-(6-(3-methoxyphenyl)-5-(piperidin-4-ylmethylamino)pyridazin-3-ylamino)pyrazine-2-carbonitrile]: the inhibition at 0.1 µM was found to be 0%, the inhibition at 1 µM came out at 9% and the inhibition at 5 µM was determined as 26%.

Take `Cc1nnc(Nc2cnc(C#N)cn2)cc1NCC1CCNCC1` [1.15, 5-(6-methyl-5-(piperidin-4-ylmethylamino)pyridazin-3-ylamino)pyrazine-2-carbonitrile]: the inhibition at 0.1 µM came to 7%, the inhibition at 1 µM stood at 8% and the inhibition at 5 µM was found to be 23%.

With `Cn1ccc(-c2nnc(Nc3cnc(C#N)cn3)cc2OCC2CNCCO2)n1` (centres unmarked) [1.13, 5-(6-(1-methyl-1H-pyrazol-3-yl)-5-(morpholin-2-ylmethoxy)pyridazin-3-ylamino)pyrazine-2-carbonitrile], the inhibition at 0.1 µM worked out at 9%, the inhibition at 1 µM amounted to 9% and the inhibition at 5 µM came to 11%.

As for `Cc1nnc(Nc2cnc(C#N)cn2)cc1NCC1CNCCO1` (centres unmarked) [1.14, 5-(6-methyl-5-(morpholin-2-ylmethylamino)pyridazin-3-ylamino)pyrazine-2-carbonitrile], the inhibition at 0.1 µM was 2%, the inhibition at 1 µM was found to be 15% and the inhibition at 5 µM was 45%.

For the compound `Cn1ccc(-c2nnc(Nc3cnc(C#N)cn3)cc2NCC2CCNCC2)n1` [1.28, 5-(6-(1-methyl-1H-pyrazol-3-yl)-5-(piperidin-4-ylmethylamino)pyridazin-3-ylamino)pyrazine-2-carbonitrile], the inhibition at 0.1 µM amounted to 13%, the inhibition at 1 µM was 48% and the inhibition at 5 µM is 86%.

`COc1ccc(-c2nnc(Nc3cnc(C#N)cn3)cc2NCC2CCNCC2)cc1` [1.23, 5-(6-(4-methoxyphenyl)-5-(piperidin-4-ylmethylamino)pyridazin-3-ylamino)pyrazine-2-carbonitrile]: the inhibition at 0.1 µM turned out to be 7%, the inhibition at 1 µM worked out at 18% and the inhibition at 5 µM came to 41%.

As to `N#Cc1cnc(Nc2cc(OCC3CNCCO3)cnn2)cn1` (centres unmarked) [1.9, 5-(5-(morpholin-2-ylmethoxy)pyridazin-3-ylamino)pyrazine-2-carbonitrile], the pIC50 was less than 5.00.

In turn, `CC(C)(C)OC(=O)N1CCOC(CNc2cc(Nc3cnc(C#N)cn3)nnc2C(F)(F)F)C1` (centres unmarked) [1.5, tert-butyl 2-((6-(5-cyanopyrazin-2-ylamino)-3-(trifluoromethyl)pyridazin-4-ylamino)methyl)morpholine-4-carboxylate] gave a pIC50 of less than 5.00.
